In brackets after ≈: the same amount, converted by molar mass. Entries after “also recorded” stand apart in the source; their conditions may differ.

By MIC is commonly meant the smallest concentration in the dilution series that meets the test's criterion for growth inhibition. What is called IC50 is the concentration that inhibits the measured activity by half. By viability is commonly meant a per cent measure of how many cells are alive, often set against a control.

The test system of series [1] is Paracoccidioides brasiliensis S1 isolate 18 (Pb18). The experiment in a line: MIC by microdilution (CLSI M27-A3 modified, alamar blue), Pb18. It counts as cell-based. The conditions noted are these: read-out: Pb18 MIC. On the procedure: (§1) Paracoccidioides brasiliensis S1 isolate 18 (Pb18-chronic PCM/São Paulo, Brazil), P. brasiliensis S2 (02-chronic PCM/Venezuela), and P. lutzii Pb01-strain ATCC MYA-826 (acute PCM/Goiânia, Brazil) were obtained from the mycology collection of the Mycology Laboratory, School of Pharmaceutical Sciences and were maintained in Fava-Netto agar medium at 37°C.
(§2) The MIC assay was performed according to the microdilution method described by Clinical and Laboratory Standards Institute ([CLSI, 2008]) document M27-A3 with modifications ([de Paula e Silva et al., 2013]). Alkyl derivatives of protocatechuic acid (hexyl, heptyl, octyl, nonyl, decyl, and dodecyl protocatechuates) were diluted according to CLSI M27-S3. The yeast suspension was adjusted to a final concentration of 1.5 × 10^3 CFU/mL in RPMI-1640 medium (Sigma–Aldrich, St. Louis, MO, United States) in 96-well plates and serial dilutions (from 250 to 0.24 μg/mL) of the compounds were then added; AMB and ITC were used as controls. The plates were incubated on a shaker at 37°C/150 rpm for a specific duration individually determined for each microorganism. The MIC was determined using alamar blue (Sigma–Aldrich, St. Louis, MO, United States) at 530 and 570 nm; a change from the original blue color of the reagent to pink […]. Following 72 or 96 h of incubation. The Minimum Fungicide Concentration (MFC) was determined by transferring an aliquot from the wells to Brain Heart Infusion (BHI) medium supplemented with 2% glucose (Difco, BD Biosciences) plates, which were then incubated at 37°C for 5–7 days. The MFC was defined as the concentration that inhibited growth ([Soares et al., 2014]).

Series [2] in a line: Cytotoxicity assay, 0.4% sulforhodamine B, MRC5. In kind it is cell-based. The following applies: human, MRC5 cells; for IC50 at 24 h: 24 h treatment, SRB; for viability at 24 h: at MIC, read-out: cell viability at the MIC values. On the procedure:
The cytotoxicity of the protocatechuates was assessed in the MRC5 cell line (MRC5) obtained from the American Type Culture Collection (ATCC; Manassas, VA, United States) and HepG2 cell line obtained from the Biotechnology Laboratory Biotech (UNICAMP, Brazil). The plates were first incubated with 1 × 10^5 cells per well at 36.5°C under 5% CO2 for 24 h to form a cell monolayer ([Husøy et al., 1993]). Compounds were tested at different concentrations ranging from 0.12 to 62.5 μg/mL using serial dilutions in a total volume of 100 μL per well. After the 24 h treatment the cytotoxicity was assessed by the 0.4% sulforhodamine B (SRB) ([Vichai and Kirtikara, 2006]). The assay is sensitive and measures the cellular protein content of adherent or suspension cultures in 96-well plates. Cells were fixed with trichloroacetic acid (TCA) and then stained for 30 min with SRB dissolved in acetic acid. In mildly acidic conditions, SRB binds on basic amino acid residues on TCA-fixed cells. The unbound dye is then removed after washing and the dye bound to the protein is solubilized in basic medium (Tris-base). The absorbance was measured at 570 nm. The result of the percentage of viable cells was performed using the following formula: according to [Rajpoot et al. (2012)] with minor modification.
Viable cells % = (test mean - hite mean/mean negative control - mean white) × 100

Series [3] deals with P. lutzii Pb01-strain ATCC MYA-826. The experiment in a line: MIC by microdilution (CLSI M27-A3 modified, alamar blue), Pb01. The conditions noted are these: Paracoccidioides lutzii, read-out: Pb01 MIC. In kind it is cell-based. On the procedure: as §1, §2
On the technique in general: Broth dilution looks for growth in wells or tubes with falling amounts of substance.

For series [4], the system named is P. brasiliensis S2 (02) (Pb02). The experiment in a line: MIC by microdilution (CLSI M27-A3 modified, alamar blue), Pb02. It counts as cell-based. The conditions noted are these: Paracoccidioides brasiliensis, read-out: Pb02 MIC, P. brasiliensis Pb02. On the procedure:
as §1, §2

For series [5], the system named is P. brasiliensis (Pb 18) adhesion to cell line MRC5. The experiment in a line: Inhibition of P. brasiliensis 18 adhesion to cells (MRC5), flow cytometry. In kind it is cell-based, Paracoccidioides brasiliensis. The following applies: Pb18 on MRC5, 3 h adhesion, 24 h treatment. On the procedure:
Cells (MRC5) were cultured at 36.5°C in 24-well plates and adjusted to 1 × 10^5 cells per well. A P. brasiliensis suspension (1.5 × 10^3 CFU/mL) was labeled with 10 μM of 5(6)-carboxyfluorescein diacetate N-succinimidyl ester (CFSE; Sigma–Aldrich) and then added to the cells. The plate was incubated for 3 h at 36.5°C under 5% CO2 to enable the adhesion process. Subsequent to treatment, dodecyl and NLS+dodecyl were applied and the plate was incubated for 24 h under the same conditions. The supernatant was removed and the plate was washed with PBS. Then, 300 μL of trypsin (Sigma–Aldrich,) was added and centrifuged. The supernatant was discarded and 500 μL of FACS buffer was added to each tube, for subsequent cell counting by flow cytometry (BD FACS Canto) and BD FACS Diva software analysis ([Mendes-Giannini et al., 1994], [2004]; [Hanna et al., 2000]).

For series [6], the system named is Caenorhabditis elegans wild-type strain N2. Put plainly: Toxicity assay in C. elegans model. It counts as in vivo. The conditions noted are these: 24 h; for toxic effect on C. elegans survival: 0.03 to 125 μg/mL. On the procedure: Caenorhabditis elegans wild-type strain N2 was routinely cultured at 22°C on nematode growth medium (NGM) plates seeded with E. coli strain OP50. For the toxicity assay, eggs were harvested to obtain synchronous cultures. After 3 days, worms in the L4 stage were washed with M9 buffer. Then, approximately 20 worms were transferred to each well of a 96-wells plate containing 100 μL of 60% M9 buffer, 40% BHI, 10 μg/mL cholesterol (in ethanol), 200 μg/mL ampicillin, and 90 μg/mL kanamycin. Next, 100 μL of dodecyl protocatechuate, NLS, or NLS+dodecyl were added to the medium with final compound concentrations in each well ranging from 0.03 to 125 μg/mL. The plate was incubated at 22°C for 24 h. Worm survival was evaluated based on mobility and form (worms with a stick shape were considered dead and worms with a sinusoidal shape were considered alive). Images were acquired using an IN Cell Analyzer 2000 (GE Healthcare), microscope (10×).

Series [7] has as its system P. brasiliensis (Pb18) adhesion to laminin matrix. The experiment in a line: Inhibition of P. brasiliensis 18 adhesion to artificial ECM: laminin. In kind it is cell-based, Paracoccidioides brasiliensis. The following applies: Pb18, 3 h adhesion, 24 h treatment. On the procedure:
(§3) Initially, 24-well plates were coated with ECM of fibronectin and laminin, respectively (Sigma–Aldrich, St. Louis, MO, United States) at a concentration of 50 μg/mL for 18 h at 4°C followed by incubation for 1 h at 37°C. The plates were then washed three times with PBS and fungal suspension was added at a concentration of 1.5 × 10^3 CFU/mL, which had been inoculated into the 24-well plate previously sensitized with ECM and incubated at 37°C for 1, 3, or 5 h. Subsequently, the supernatant was removed, the plate was washed with PBS, and then 300 μL of trypsin was added (Sigma). The supernatant was obtained and then centrifuged at 10,000 rpm for 5 min at (4°C). The new supernatant was discarded and 500 μL of FACS buffer was added for subsequent cell counting by flow cytometry (BD FACS Canto and BD FACS Diva software analysis). Following the adhesion period, treatment with the selected compound (dodecyl and NLS+dodecyl) was performed for 24 h at 37°C. RPMI-1640 with L-glutamine and 2% glucose was used to maintain adequate nutritional status. Subsequently, the supernatant was removed and the plate was washed with PBS. Then, 300 μL of trypsin was added and centrifuged. The supernatant was discarded and 500 μL of FACS buffer was added to each tube for subsequent cell counting by flow cytometry (BD FACS Canto and BD FACS Diva software analysis).

For series [8], the system named is P. brasiliensis (Pb18) adhesion to fibronectin matrix. Put plainly: Inhibition of P. brasiliensis 18 adhesion to artificial ECM: fibronectin. In kind it is cell-based, Paracoccidioides brasiliensis. The conditions noted are these: Pb18, 3 h adhesion, 24 h treatment. On the procedure: as §3

Consider `C[C@@H]1[C@H](O)[C@@H](C)/C=C/C=C/C=C/C=C/C=C/C=C/C=C/[C@H](O[C@@H]2O[C@H](C)[C@@H](O)[C@H](N)[C@@H]2O)C[C@@H]2O[C@](O)(C[C@@H](O)C[C@@H](O)[C@H](O)CC[C@@H](O)C[C@@H](O)CC(=O)O[C@H]1C)C[C@H](O)[C@H]2C(=O)O` [AMB, Amphotericin B, reference compound], for which the minimum inhibitory concentration (MIC) came to 0.13 µg/mL (≈ 0.141 µM) in series [1] and 0.06 µg/mL (≈ 0.0649 µM) in series [3]. In addition, in series [2], inhibition was half-maximal at 0.22 µg/mL (≈ 0.238 µM) (IC50 at 24 h).
On to `CCC(C)n1ncn(-c2ccc(N3CCN(c4ccc(OCC5COC(Cn6cncn6)(c6ccc(Cl)cc6Cl)O5)cc4)CC3)cc2)c1=O` (stereo not drawn) [ITC, itraconazole, reference compound], for which the minimum inhibitory concentration (MIC) in series [1] came out at 0.02 µg/mL (≈ 0.0283 µM); in series [3], 0.12 µg/mL (≈ 0.17 µM); in series [4] it was 0.01 µg/mL (≈ 0.0142 µM). The compound further came in with an IC50 at 24 h in series [2] of 0.1 µg/mL (≈ 0.142 µM).
`CCCCCCCCCCOC(=O)c1ccc(O)c(O)c1` [decyl, decyl protocatechuate]: the minimum inhibitory concentration (MIC) in series [1] is 0.97 µg/mL (≈ 3.29 µM); in series [3], 1.9 µg/mL (≈ 6.45 µM); in series [4], 0.48 µg/mL (≈ 1.63 µM). In series [2], half-maximal inhibition (IC50 at 24 h) required 16 µg/mL (≈ 54.3 µM). Further, the viability at 24 h in series [2] worked out at 98%.
With `CCCCCCCCCCCCOC(=O)c1ccc(O)c(O)c1` [dodecyl, Dodecyl protocatechuate], in series [5], the “inhibition of adhesion to cells” value was determined as 65%. Further, the “Survival percentage of C. elegans worms” value in series [6] (0.03 μg/mL), in series [6] (0.48 μg/mL), in series [6] (7.80 μg/mL), in series [6] (15.60 μg/mL), in series [6] (62.50 μg/mL) and in series [6] (125.00 μg/mL) was 100% each time. For the same compound, the figures for the “toxic effect on C. elegans survival” value in series [6] and in series [6] (listed as free dodecyl protocatechuate) were “neither dodecyl nor NLS+dodecyl exhibited any toxic effects; also recorded: did not affect worm survival at any concentration” and “neither compound exhibited a toxic effect on survival”, respectively. Also, in series [7], the “inhibition of adhesion to the laminin matrix” value is recorded as 75%. Moreover, the MIC in series [1] worked out at 0.48 µg/mL (≈ 1.49 µM); in series [3] it was 0.48 µg/mL (≈ 1.49 µM); in series [4], 0.24 µg/mL (≈ 0.744 µM). Further, the 50% inhibitory concentration (IC50) at 24 h in series [2] is 17.9 µg/mL (≈ 55.5 µM). In addition, in series [2], the viability at 24 h amounted to 98%. For the same compound, the “inhibition of adhesion to the fibronectin matrix” value in series [8] is recorded as 64%.
For the compound `CCCCCCCOC(=O)c1ccc(O)c(O)c1` [heptyl, heptyl protocatechuate], the values for the minimal inhibitory concentration (MIC) in series [1], in series [3] and in series [4] were 7.8 µg/mL (≈ 30.9 µM), 3.9 µg/mL (≈ 15.5 µM) and 0.24 µg/mL (≈ 0.951 µM), respectively. Also, the midpoint of inhibition in series [2], the IC50 at 24 h, lay at 17.6 µg/mL (≈ 69.8 µM). Also, the viability at 24 h in series [2] was 65%.
The like results for `CCCCCCOC(=O)c1ccc(O)c(O)c1` [hexyl, hexyl protocatechuate] were, in that order, 3.9 µg/mL (≈ 16.4 µM), 7.8 µg/mL (≈ 32.7 µM), 1.9 µg/mL (≈ 7.97 µM), 29.5 µg/mL (≈ 124 µM) and 99%.
The like results for `CCCCCCCCCOC(=O)c1ccc(O)c(O)c1` [nonyl, nonyl protocatechuate] were, in that order, 1.9 µg/mL (≈ 6.78 µM), 0.97 µg/mL (≈ 3.46 µM), 0.48 µg/mL (≈ 1.71 µM), 17.7 µg/mL (≈ 63.1 µM) and 96%.
The like results for `CCCCCCCCOC(=O)c1ccc(O)c(O)c1` [octyl, octyl protocatechuate] were, in that order, 0.97 µg/mL (≈ 3.64 µM), 0.97 µg/mL (≈ 3.64 µM), 1.9 µg/mL (≈ 7.13 µM), 33.7 µg/mL (≈ 127 µM) and 98%.

Values taken from publication PMC5466964, “Alkyl Protocatechuate-Loaded Nanostructured Lipid Systems as a Treatment Strategy for Paracoccidioides brasiliensis and Paracoccidioides lutzii In Vitro” (Frontiers in Microbiology, 2017).
